What was measured:
Experiment in all cases: Test B preemergence/postemergence greenhouse plant response rating 0 to 10
Conditions in all cases: 0 to 10 scale
barley = format: in vivo, Hordeum vulgare
Method in brief: (§1)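 Both application timings were run together: seeds got compound preemergence, and established seedlings (two to eighteen cm) got it postemergence. Non-phytotoxic solvent carried the chemical. Ratings are visual, versus controls, at twelve to sixteen days.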

barnyardgrass = format: in vivo, Echinochloa crus-galli
Method in brief: as §1

bedstraw = format: in vivo, Galium aparine
Method in brief: as §1

blackgrass = format: in vivo, Alopecurus myosuroides
Method in brief: as §1

cheatgrass = format: in vivo, Bromus secalinus
Method in brief: as §1

chickweed = format: in vivo, Stellaria media
Method in brief: as §1

cocklebur = format: in vivo, Xanthium pensylvanicum
Method in brief: as §1

corn = format: in vivo, Zea mays
Method in brief: as §1

cotton = format: in vivo, Gossypium hirsutum
Method in brief: as §1

crabgrass = format: in vivo, Digitaria spp.
Method in brief: as §1

giant foxtail = format: in vivo, Setaria faberii
Method in brief: as §1

lambsquarters = format: in vivo, Chenopodium album
Method in brief: as §1

morningglory = format: in vivo, Ipomoea hederacea
Method in brief: as §1

rape = format: in vivo, Brassica napus
Method in brief: as §1

rice = format: in vivo, Oryza sativa
Method in brief: as §1

sorghum = format: in vivo, Sorghum bicolor
Method in brief: as §1

soybean = format: in vivo, Glycine max
Method in brief: as §1

sugar beet = format: in vivo, Beta vulgaris
Method in brief: as §1

velvetleaf = format: in vivo, Abutilon theophrasti
Method in brief: as §1

wheat = format: in vivo, Triticum aestivum
Method in brief: as §1

wild buckwheat = format: in vivo, Polygonum convolvulus
Method in brief: as §1

wild oat = format: in vivo, Avena fatua
Method in brief: as §1

purple nutsedge = format: in vivo, Cyperus rotundus
Method in brief: as §1

C#CCOC(=O)COc1cc(-c2nn3c(c2Cl)CCCC3)c(F)cc1Cl [Compound 61]
Plant response rating, Barley (barley; POSTEMERGENCE, Rate 10 g/ha): 1
Plant response rating, Barley (barley; POSTEMERGENCE, Rate 50 g/ha): 2
Plant response rating, Barley (barley; PREEMERGENCE, Rate 10 g/ha): 0
Plant response rating, Barley (barley; PREEMERGENCE, Rate 50 g/ha): 0
Plant response rating, Barnyardgrass (barnyardgrass; POSTEMERGENCE, Rate 10 g/ha): 2
Plant response rating, Barnyardgrass (barnyardgrass; POSTEMERGENCE, Rate 50 g/ha): 2
Plant response rating, Barnyardgrass (barnyardgrass; PREEMERGENCE, Rate 10 g/ha): 0
Plant response rating, Barnyardgrass (barnyardgrass; PREEMERGENCE, Rate 50 g/ha): 0
Plant response rating, Bedstraw (bedstraw; POSTEMERGENCE, Rate 10 g/ha): 5
Plant response rating, Bedstraw (bedstraw; POSTEMERGENCE, Rate 50 g/ha): 9
Plant response rating, Bedstraw (bedstraw; PREEMERGENCE, Rate 10 g/ha): 0
Plant response rating, Bedstraw (bedstraw; PREEMERGENCE, Rate 50 g/ha): 5
Plant response rating, Blackgrass (blackgrass; POSTEMERGENCE, Rate 10 g/ha): 2
Plant response rating, Blackgrass (blackgrass; POSTEMERGENCE, Rate 50 g/ha): 3
Plant response rating, Blackgrass (blackgrass; PREEMERGENCE, Rate 10 g/ha): 0
Plant response rating, Blackgrass (blackgrass; PREEMERGENCE, Rate 50 g/ha): 2
Plant response rating, Cheatgrass (cheatgrass; POSTEMERGENCE, Rate 10 g/ha): 2
Plant response rating, Cheatgrass (cheatgrass; POSTEMERGENCE, Rate 50 g/ha): 3
Plant response rating, Cheatgrass (cheatgrass; PREEMERGENCE, Rate 10 g/ha): 0
Plant response rating, Cheatgrass (cheatgrass; PREEMERGENCE, Rate 50 g/ha): 2
Plant response rating, Chickweed (chickweed; POSTEMERGENCE, Rate 10 g/ha): 2
Plant response rating, Chickweed (chickweed; POSTEMERGENCE, Rate 50 g/ha): 2
Plant response rating, Chickweed (chickweed; PREEMERGENCE, Rate 50 g/ha): 3
Plant response rating, Cocklebur (cocklebur; POSTEMERGENCE, Rate 10 g/ha): 4
Plant response rating, Cocklebur (cocklebur; POSTEMERGENCE, Rate 50 g/ha): 8
Plant response rating, Cocklebur (cocklebur; PREEMERGENCE, Rate 10 g/ha): 0
Plant response rating, Cocklebur (cocklebur; PREEMERGENCE, Rate 50 g/ha): 0
Plant response rating, Corn (corn; POSTEMERGENCE, Rate 10 g/ha): 3
Plant response rating, Corn (corn; POSTEMERGENCE, Rate 50 g/ha): 5
Plant response rating, Corn (corn; PREEMERGENCE, Rate 50 g/ha): 0
Plant response rating, Cotton (cotton; POSTEMERGENCE, Rate 10 g/ha): 9
Plant response rating, Cotton (cotton; POSTEMERGENCE, Rate 50 g/ha): 10
Plant response rating, Cotton (cotton; PREEMERGENCE, Rate 10 g/ha): 0
Plant response rating, Cotton (cotton; PREEMERGENCE, Rate 50 g/ha): 0
Plant response rating, Crabgrass (crabgrass; POSTEMERGENCE, Rate 10 g/ha): 2
Plant response rating, Crabgrass (crabgrass; POSTEMERGENCE, Rate 50 g/ha): 2
Plant response rating, Crabgrass (crabgrass; PREEMERGENCE, Rate 10 g/ha): 0
Plant response rating, Crabgrass (crabgrass; PREEMERGENCE, Rate 50 g/ha): 0
Plant response rating, Giant foxtail (giant foxtail; POSTEMERGENCE, Rate 10 g/ha): 2
Plant response rating, Giant foxtail (giant foxtail; POSTEMERGENCE, Rate 50 g/ha): 2
Plant response rating, Giant foxtail (giant foxtail; PREEMERGENCE, Rate 10 g/ha): 0
Plant response rating, Giant foxtail (giant foxtail; PREEMERGENCE, Rate 50 g/ha): 0
Plant response rating, Lambsquarter (lambsquarters; POSTEMERGENCE, Rate 10 g/ha): 9
Plant response rating, Lambsquarter (lambsquarters; POSTEMERGENCE, Rate 50 g/ha): 9
Plant response rating, Lambsquarter (lambsquarters; PREEMERGENCE, Rate 50 g/ha): 9
Plant response rating, Morningglory (morningglory; POSTEMERGENCE, Rate 10 g/ha): 7
Plant response rating, Morningglory (morningglory; POSTEMERGENCE, Rate 50 g/ha): 10
Plant response rating, Morningglory (morningglory; PREEMERGENCE, Rate 50 g/ha): 3
Plant response rating, Rape (rape; POSTEMERGENCE, Rate 10 g/ha): 1
Plant response rating, Rape (rape; POSTEMERGENCE, Rate 50 g/ha): 8
Plant response rating, Rape (rape; PREEMERGENCE, Rate 50 g/ha): 4
Plant response rating, Rice (rice; POSTEMERGENCE, Rate 10 g/ha): 2
Plant response rating, Rice (rice; POSTEMERGENCE, Rate 50 g/ha): 4
Plant response rating, Rice (rice; PREEMERGENCE, Rate 50 g/ha): 0
Plant response rating, Sorghum (sorghum; POSTEMERGENCE, Rate 10 g/ha): 2
Plant response rating, Sorghum (sorghum; POSTEMERGENCE, Rate 50 g/ha): 3
Plant response rating, Sorghum (sorghum; PREEMERGENCE, Rate 50 g/ha): 0
Plant response rating, Soybean (soybean; POSTEMERGENCE, Rate 10 g/ha): 2
Plant response rating, Soybean (soybean; POSTEMERGENCE, Rate 50 g/ha): 3
Plant response rating, Soybean (soybean; PREEMERGENCE, Rate 50 g/ha): 0
Plant response rating, Sugar beet (sugar beet; POSTEMERGENCE, Rate 10 g/ha): 10
Plant response rating, Sugar beet (sugar beet; POSTEMERGENCE, Rate 50 g/ha): 10
Plant response rating, Sugar beet (sugar beet; PREEMERGENCE, Rate 50 g/ha): 10
Plant response rating, Velvetleaf (velvetleaf; POSTEMERGENCE, Rate 10 g/ha): 2
Plant response rating, Velvetleaf (velvetleaf; POSTEMERGENCE, Rate 50 g/ha): 10
Plant response rating, Velvetleaf (velvetleaf; PREEMERGENCE, Rate 50 g/ha): 10
Plant response rating, Wheat (wheat; POSTEMERGENCE, Rate 10 g/ha): 2
Plant response rating, Wheat (wheat; POSTEMERGENCE, Rate 50 g/ha): 3
Plant response rating, Wheat (wheat; PREEMERGENCE, Rate 50 g/ha): 0
Plant response rating, Wild buckwheat (wild buckwheat; POSTEMERGENCE, Rate 10 g/ha): 3
Plant response rating, Wild buckwheat (wild buckwheat; POSTEMERGENCE, Rate 50 g/ha): 9
Plant response rating, Wild buckwheat (wild buckwheat; PREEMERGENCE, Rate 50 g/ha): 0
Plant response rating, Wild oat (wild oat; POSTEMERGENCE, Rate 10 g/ha): 1
Plant response rating, Wild oat (wild oat; POSTEMERGENCE, Rate 50 g/ha): 2
Plant response rating, Wild oat (wild oat; PREEMERGENCE, Rate 50 g/ha): 2
Plant response rating, Nutsedge (purple nutsedge; POSTEMERGENCE, Rate 10 g/ha): 0
Plant response rating, Nutsedge (purple nutsedge; POSTEMERGENCE, Rate 50 g/ha): 2
Plant response rating, Nutsedge (purple nutsedge; PREEMERGENCE, Rate 50 g/ha): 10
